Results from US7410955B2, “Therapeutic use of agonist ligands specific to G2A receptor” (Biosynergen, Inc., priority 2002, dated 2008).

What was measured:
E. coli = assay: In vitro antibacterial activity of LPC (CFU on LB media); assay type: cell-based; conditions: for CFU: 37° C., 12 hours
Procedure: Four petridishes per group were used. For a control group, only LB media was poured onto four 60-mm petridishes and hardened. The peritoneal cavity of mice according to Example <6-1> was washed with sterilized saline. The resultant solution was diluted with HBSS in a ratio of 1/100, and then 10 μl of the diluted solution was spread on the media for each group. Subsequently, after they had been incubated in a bacteria incubator maintained at 37° C. for 12 hours, colony forming unit (CFU) was visibly measured.

neutrophils = assay: Inhibition of anti-apoptosis of neutrophils by inflammation mediators (AcOr/EtBr staining); assay type: cell-based, human; conditions: 15 μM and 30 μM
Description: (§1) Neutrophils were isolated from healthy adults using discontinuous percoll gradient according to the method of Szucs, S. et al. (J. Immunol. Methods, 167: 245-251, 1994). First, plasmas were separated from heparinized whole blood, and red blood cells were depleted by dextran sedimentation. Thereafter, leukocytes were layered over a percoll gradient with densities of 1.077 and 1.094 (Pharmacia, Sweden). Separated neutrophil layers were recovered from the percoll gradient interface, and then washed with HBSS (Hank's balanced salt solution, Sigma Chemical Co., USA). The remaining pellet was resuspended in RPMI 1640 medium supplemented with 10% FBS (fetal bovine serum) and 2 mM gentamicin. As a result of the examination of the cytospin stained with Wright-Giemsa (Sigma Chemical Co., USA), it was observed that the resuspension solution contained 95% or more neutrophils. Also, as a result of examination using trypan blue dye exclusion method, 98% or more neutrophils were observed.
1×10^5 neutrophil cells isolated in above Example <1-1> were cultured in a 96-well plate to which RPMI1640 medium containing 10% FBS was added. Thereafter, they were treated with 1-stearoyl lysophosphatidylcoline (Sigma Chemical Co., USA) in concentrations of 15 μM and 30 μM, respectively. After 1 hour, they were treated with 1 μg/ml LPS (Sigma Chemical Co.). After 24 hours, the medium was removed from the plats, and the remaining cells were washed twice with PBS (phosphate-buffered saline) buffer at 4° C. The cells adhered to the bottom of the plate were all scraped and put into a 1.5-ml eppendorf tube. Then, they were centrifuged at 2500 rpm for 5 min, and the supernatant was removed. Again, 0.1 ml of PBS buffer at 4° C. was added to the pellet, which was then well mixed using pipetting. To 25 μl of the cell suspension was added 2 μl of AcOr/EtBr dye solution in which 100 μg/ml of acridine orange (AcOr) and 100 μg/ml of ethidium bromide (EtBr) were mixed. Then, the percentage of apoptotic cells/total cells was calculated with observing the neutrophil cells under a fluorescence microscope. […]

E. coli (DH5a) = assay: Bacteria-induced sepsis model; assay type: in vivo, ICR mice; conditions: 10 mg/kg subcutaneous, 2 and 14 hours after i.p. E. coli
Procedure: ICR mice (25-30 g in body weight; MJ Ltd.) were intraperitoneally injected with alive 10^8 cells/ml E. coli (DH5a) that were suspended in 0.5 ml of PBS (phosphate-buffered saline) to cause peritonitis, thereby inducing sepsis.
After the peritoneal cavity of mice had been exposed, it was washed with sterilized saline (2 ml). The resultant solution was diluted with HBSS (Sigma Chemical Co., USA) in a ratio of 1/1000, and then 10 μl of each diluted solution was spread on Trypticase Soy agar (BBL, Becton Dickinson Co., USA) plates. After overnight incubation at 37° C., colony forming unit (CFU) was measured.
14 ICR mice of bacteria-induced septicemia model according to Reference Example <1-1> a) were divided into two groups of 7 mice. 7 mice were administered with 1-stearoyl LPC (Sigma Chemical Co., USA) dissolved in 1% BSA (bovine serum albumin) solution containing no fatty acid in an amount of 10 mg/kg by subcutaneous injection, 2 and 14 hours after E. coli was intraperitoneally injected, respectively (experimental group). The remaining 7 mice were administered with 1% BSA solution containing no fatty acid of the same amount as above, instead of LPC, in the same manner (control group). […] Also, the number of intraperitoneal E. coli cells 24 hours after the intraperitoneal injection was measured in accordance with the method described in Reference Example 3.

neutrophils (human PMNs) = assay: IL-8 release induced by LPS in neutrophils (ELISA); assay type: cell-based; conditions: 15 μM and 30 μM, 1 hour before 1 μg/ml LPS, supernatant after 3 hours
Description: as §1, with “observed. […]” for “observed.”
The neutrophils and monocytes isolated in Examples <2-1> and <2-2> above were cultured in a 96-well plate to which RPMI1640 medium containing 10% FBS was added, at a concentration of 1×10^5 cells/well/0.2 ml, respectively. […] Then, the level of IL-8 was measured using ELISA kit (Biosource, USA).

CCCCCCCCCCCCCCCCCC(=O)OCC(O)COP(=O)([O-])OCC[N+](C)(C)C (stereo not drawn) [1-stearoyl LPC, 1-stearoyl (18:0) lysophosphatidylcholine]
CFU (E. coli; LPC conc. 12 μM in LB media): 661 ± 285 | CFU (E. coli; LPC conc. 60 μM in LB media): 639 ± 304 | CFU (E. coli; LPC conc. 300 μM in LB media): 611 ± 281 | in vitro direct antibacterial effects against E. coli (E. coli; summary of Table 1): no in vitro direct antibacterial effects | percentage of neutrophil apoptosis (apoptotic cells/total cells) that had been decreased by LPS (neutrophils; 1 hour before 1 μg/ml LPS, read after 24 hours): increased by 1-stearoyl LPC in a concentration-dependent manner | percentage of neutrophil apoptosis that had been decreased by endogenous inflammation mediators (neutrophils; 100 ng/ml GM-CSF, 100 ng/ml G-CSF or 100 ng/ml IFN-γ instead of LPS): increased by 1-stearoyl LPC in a concentration-dependent manner | number of intraperitoneal E. coli cells (E. coli (DH5a); 24 hours after injection, P<0.01): remarkably decreased | death rate due to septicemia (survival rate over time) (E. coli (DH5a); P<0.05): significantly suppressed | level of IL-8 release that had been increased by LPS in neutrophils (neutrophils (human PMNs)): inhibited by LPC in a concentration-dependent manner
